The values below come from patent US6737425B1, “N,N-substituted cyclic amine derivatives” (Eisai Co., Ltd., priority 1998, dated 2004).

Several values for one entry are separate records, joined by “and”; a condition that tells them apart may be missing. Equal entries are not always repeated.

The subject of the assay is rat model with occlusion in the middle cerebral artery. Put plainly: Effect (I) of reducing infarct volume in a rat model with occlusion in the middle cerebral artery (2 hours occlusion). The assay is classed as in vivo. As to conditions: for Infarct volume in the cerebral cortex, Mean: from 30 minutes after occlusion, 6 hours, 2 hours occlusion, 24 hours after occlusion; for reduction of infarct volume in the cerebral cortex: vs control group. On the procedure: Effect (I) of Reducing Infarct Volume in a Rat Model with Occlusion in the Middle Cerebral Artery
The compound in Example 1 was selected as the typical example of the compound of the present invention, and this sample was dissolved in 5.28% mannitol to be adjusted to a dosage of 5 or 10 mg/kg/h just before use. The concentration of the sample was calculated on the basis of the average weight of animals, as shown in the following example. The average weight was determined by measuring the weights of all animals to be used in the experiment.
For occlusion in the middle cerebral artery, an embolus prepared from nylon yarn of 4-0 monofilament (Ethicon, Inc., Somerville, N.J., USA) was used. The end of the nylon embolus was previously rounded with flame, and it was cut into fragments of 25 mm in length, and each fragment was marked at a position 17 mm apart from the end with an oil-based felt pen.
Implantation of a catheter for intravenous administration (Atom venous catheter 3Fr, Atom Medical Co., Ltd., Tokyo) was conducted under anesthesia with 70% laughing gas-2% halothane. The catheter filled with physiological saline was inserted through the thigh vein in the left leg.
Occlusion in the middle cerebral artery was conducted in accordance with the method of Longa et al. (12). Just after the catheter was implanted, the operation was conducted under anesthesia with 70% laughing gas-2% halothane. A rat was allowed to lie on the back and the cervical region was cut open under a stereoscopic microscope for operation, and the part where the common carotid artery at the right side branched into the external carotid artery and the internal carotid artery was confirmed. The external carotid artery was cut at the peripheral side, and the nylon embolus was inserted through the end of the cut external carotid artery into the internal carotid artery. The embolus was inserted until the position 17 mm apart from the end of the embolus reached the point where the external carotid artery was joined to the internal carotid artery, and the embolus was fixed. To initiate blood stream again, the nylon embolus was removed 2 hours after the middle cerebral artery was occluded. […]
Twenty four hours after the middle cerebral artery was occluded, the head was cut off from the rat and the brain was taken out. […] The sample was left at room temperature for at least 1 hour in the TTC solution and then measured for the infarct area. […]

On to `CC(C)C(C#N)(CCCN1CCN(CCOc2ccc(F)cc2)CC1)c1ccccc1` (stereo not shown) [Example 1, 1-[(4-Cyano-5-methyl-4-phenyl)hexyl]-4-[2-(4-fluorophenoxy)ethyl]piperazine], for which the “Infarct volume in the cerebral cortex, Mean” value was 162.2±16.3 mm^3 and 162.17 mm^3 (5 mg/kg/h i.v. (table: 5 mg/kg)); 135.5±26.2 mm^3 and 135.50 mm^3 (10 mg/kg/h i.v. (table: 10 mg/kg)). Also, the “reduction of infarct volume in the cerebral cortex” value runs as follows: (5 mg/kg/h i.v.) 28%; (10 mg/kg/h i.v.) 40%.
